Laboratory results from publication PMC5515844, “A new Prenylated Flavonoid induces G0/G1 arrest and apoptosis through p38/JNK MAPK pathways in Human Hepatocellular Carcinoma cells” (Scientific Reports, 2017).

Columns and labels:
Hep3B = assay: MTT cytotoxicity assay; type: cell-based, human; conditions: Homo sapiens, 48 h, mean ± SD
Procedure: (§1) HepG2 and Hep3B (human hepatoma cells), Bcap37 and MCF-7 (human breast cancer cells), TE-1 (human esophageal cancer cells), A549 (human lung carcinoma cells), U251 and U87 (human glioma cells), were cultured in Dulbecco’s modified Eagle’s medium (DMEM) supplemented with 10% fetal bovine serum (FBS) and 1% penicillin/streptomycin (10000 U/mL penicillin, 10000 μg/ml streptomycin). SH-SY5Y (human neuroblastoma cells), LO2 (human normal liver cell) were grown in RPMI 1640 containing 10% FBS and 100 µg/ml penicillin, 100 µg/ml streptomycin. HepG2, Hep3B, MCF-7, TE-1, A549, U87, U251 and SHSY5Y cells were obtained from the American Type Culture Collection (Manassas, VA, USA). Bcap37 and LO2 cells were purchased from the Cell Bank of Chinese Academy of Sciences (Shanghai, China). All cells were incubated in a humidified atmosphere containing 5% CO2 at 37 °C.
(§2) Cells seeded in 96-well plates with 5 × 10^3 cells/well were adhered overnight and incubated with vehicle control (DMSO) or diverse concentrations of compounds for 48 h. After treatment, 20 μL of MTT (5 mg/mL) was added to each well and incubated for another 4 h at 37 °C. Then, 150 μL of DMSO/well was appended after removed the supernatant to dissolve the formed purple formazan crystals and the color absorbance was measured at 490 nm using a microplate reader (Molecular Devices, Thermo, CA, USA). The inhibition rate (%) was calculated as (A490(control) − A490(drug groups))/(A490(control) − A490(blank)) × 100 and the value of IC50 (the concentration that caused 50% inhibition of cell viability) was determined using SPSS 20.0. This experiment was measured in triplicate, independently.

HepG2 = assay: MTT cytotoxicity assay; type: cell-based, human; conditions: Homo sapiens, HepG2; MTT, 48 h, mean ± SD
Procedure: as §1, §2

A549 = assay: MTT cytotoxicity assay; type: cell-based; conditions: Homo sapiens, 48 h, mean ± SD
Procedure: as §1, §2

Bcap37 = assay: MTT cytotoxicity assay; type: cell-based; conditions: Homo sapiens, 48 h, mean ± SD
Procedure: as §1, §2

MCF-7 = assay: MTT cytotoxicity assay; type: cell-based; conditions: Homo sapiens, MCF7, 48 h, mean ± SD
Procedure: as §1, §2

SH-SY5Y = assay: MTT cytotoxicity assay; type: cell-based; conditions: Homo sapiens, 48 h, mean ± SD
Procedure: as §1, §2

TE-1 = assay: MTT cytotoxicity assay; type: cell-based; conditions: Homo sapiens, 48 h, mean ± SD
Procedure: as §1, §2

U251 = assay: MTT cytotoxicity assay; type: cell-based; conditions: Homo sapiens, U-251, 48 h, mean ± SD
Procedure: as §1, §2

U87 = assay: MTT cytotoxicity assay; type: cell-based; conditions: Homo sapiens, U-87 MG, 48 h, mean ± SD
Procedure: as §1, §2

LO2 = assay: MTT cytotoxicity assay, normal hepatic cells; type: cell-based; conditions: mean ± SD
Procedure: as §1, §2

Hep3B cells = assay: Cell cycle analysis, PI staining, flow cytometry; type: cell-based, human; conditions: different concentrations, 24 and 48 h
Procedure: (§3) Flow cytometry was used to determine the cell cycle effects of daphnegiravone D on Hep3B and HepG2 cells. Cells were seeded (2 × 10^5 cells/well) into six-well plates with complete DMEM medium for 24 h and treated with various concentrations of daphnegiravone D for 24 and 48 h. Cells were harvested after treatment, washed with cold PBS, and fixed with 70% ethanol at 4 °C overnight. Then, resuspended cell pellets in staining buffer, blended in RNase A and PI staining for 30 min at 37 °C. Cell cycle phase was investigated using a FACSCalibur flow cytometer (BD Biosciences, New Jersey, USA). The results were analyzed with FlowJo software (v7.6.5, Tree Star, Inc.).

HepG2 cells = assay: Cell cycle analysis, PI staining, flow cytometry; type: cell-based, human; conditions: HepG2, different concentrations, 24 and 48 h
Procedure: as §3

[1] = system: cyclin D1, cyclin E1, CDK2, CDK4, cleaved-caspase 3, PARP, p38, JNK, ERK in Hep3B cells; assay: Western blotting analysis; type: cell-based, human
Procedure: (§4) Cells that after treatment were harvested and lysed by radio-immunoprecipitation assay (RIPA) buffer containing protease inhibitor (PMSF, 1 mM) on ice for 30 min. Cells lysates were centrifuged at 12,000 g for 15 min at 4 °C and following the protein concentration in the supernatant was determined using a BCA protein assay kit (Thermo Scientific, Waltham, USA), then cell extracts were added SDS-PAGE sample loading buffer and denatured at 100 °C for 10 min. Equal amount of protein (30 μg) were separated on a 8–15% SDS-PAGE and transferred onto PVDF membranes (0.2 μm, Millipore) using an electroblotting apparatus (Bio-Rad). The membranes were blocked with 5% milk in PBS-T (PBS containing 0.1% Tween 20) for 2 h at room temperature and incubated with primary antibodies at 4 °C overnight. After washed three times with PBS-T, the membranes were incubated with horseradish peroxi-dase (HRP)-conjugated secondary antibody (1:5,000) at room temperature for 2 h, then washed again, and the immunoreactive bands were detected using ECL reagents (ThermoFisher, Waltham, MA).

[2] = system: cyclin D1, cyclin E1, CDK2, CDK4, cleaved-caspase 3, PARP, p38, JNK, ERK in HepG2 cells; assay: Western blotting analysis; type: cell-based, human
Procedure: as §4

COc1c(-c2ccc(O)c(CC=C(C)C)c2)oc2c(CC=C(C)C)c(O)cc(O)c2c1=O [Compound 1, daphnegiravone D] was tested, and the IC50 (Hep3B) was 1.63 ± 0.56 µM, the IC50 (HepG2) was 9.89 ± 1.02 µM and the IC50 (A549) was 21.8 ± 1.34 µM. It also gave an IC50 (Bcap37) of 28 ± 1.94 µM, an IC50 (MCF-7) of 22.3 ± 2.18 µM and an IC50 (SH-SY5Y) of 39.1 ± 3.67 µM. The IC50 (TE-1) was 19.3 ± 2.3 µM, the IC50 (U251) was 33.4 ± 3.03 µM and the IC50 (U87) was 35.1 ± 3.97 µM. The IC50 (LO2; 48 h, normal human hepatic cells) was 45.1 ± 3.09 µM, the IC50 (LO2; Homo sapiens, L02, 48 h) was roughly 45 µM and the cell cycle arrest (Hep3B cells) was “significantly arrested at G0/G1 phase”. For the same compound, the cell cycle arrest (HepG2 cells) was “significantly arrested at G0/G1 phase”, the “expression of cyclin D1” value [1] was “not significantly changed” and the “phosphorylated status of ERK” value [1] was “no distinct change”. For the same compound, the “phosphorylation level of p38” value ([1]; 48 h) was “markedly increased”, the “levels of cleaved-caspase 3 and -PARP” value ([1]; 48 h, dose-dependent) was “increased” and the “level of phosphorylated JNK” value ([1]; dose-dependent) was “dramatically reduced”. For the same compound, the “levels of cyclin E1, CDK2 and CDK4” value ([1]; dose-dependent) was “decreased”, the “expression of cyclin D1” value ([2]; HepG2) was “not significantly changed” and the “phosphorylated status of ERK” value ([2]; HepG2) was “no distinct change”. For the same compound, the “phosphorylation level of p38” value ([2]; HepG2, 48 h) was “markedly increased”, the “levels of cleaved-caspase 3 and -PARP” value ([2]; HepG2, 48 h, dose-dependent) was “increased” and the “level of phosphorylated JNK” value ([2]; HepG2, dose-dependent) was “dramatically reduced”. The “levels of cyclin E1, CDK2 and CDK4” value ([2]; HepG2, dose-dependent) was “decreased”.
